The source made the active and inactive calls.
Experiments:
[1] = viability of uninfected HEp-2 cells – cell-based, HTS, cytotoxicity control for RSV inhibitor project, dose response (AID 2410); format: functional; conditions: human respiratory syncytial virus
cells [2] = assay: cells
Bcl-2-like protein 10 = Bcl-2-like protein 10 (Homo sapiens, UniProt Q9HD36); assay: Concentration-response of Bcl-B inhibitors by biochemical FP with TR3 (AID 1243); format: functional
[3] = target: T1, Neuropeptide Y receptor type 1 (Homo sapiens, UniProt P25929); assay: IC50 of human NPY-Y1 blockers – cell-based, dose response (AID 1277); format: functional
T1 sequence (P25929 whole entry): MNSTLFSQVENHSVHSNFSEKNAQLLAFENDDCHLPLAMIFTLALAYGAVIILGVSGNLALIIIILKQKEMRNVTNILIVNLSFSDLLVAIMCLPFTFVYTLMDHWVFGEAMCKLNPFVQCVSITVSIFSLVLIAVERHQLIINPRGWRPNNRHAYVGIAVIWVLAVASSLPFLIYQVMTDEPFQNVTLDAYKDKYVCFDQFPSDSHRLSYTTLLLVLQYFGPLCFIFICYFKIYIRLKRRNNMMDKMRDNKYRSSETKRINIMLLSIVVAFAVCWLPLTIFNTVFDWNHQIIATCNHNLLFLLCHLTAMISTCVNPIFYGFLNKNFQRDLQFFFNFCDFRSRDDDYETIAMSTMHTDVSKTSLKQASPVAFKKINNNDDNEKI

[4] = target: T2, Neuropeptide Y receptor type 2 (Homo sapiens, UniProt P49146); assay: IC50 for human NPY-Y2 blockade – cell-based, counter-screen for NPY-Y1 antagonist project, dose response (AID 1278); format: functional
T2 sequence (P49146 whole entry): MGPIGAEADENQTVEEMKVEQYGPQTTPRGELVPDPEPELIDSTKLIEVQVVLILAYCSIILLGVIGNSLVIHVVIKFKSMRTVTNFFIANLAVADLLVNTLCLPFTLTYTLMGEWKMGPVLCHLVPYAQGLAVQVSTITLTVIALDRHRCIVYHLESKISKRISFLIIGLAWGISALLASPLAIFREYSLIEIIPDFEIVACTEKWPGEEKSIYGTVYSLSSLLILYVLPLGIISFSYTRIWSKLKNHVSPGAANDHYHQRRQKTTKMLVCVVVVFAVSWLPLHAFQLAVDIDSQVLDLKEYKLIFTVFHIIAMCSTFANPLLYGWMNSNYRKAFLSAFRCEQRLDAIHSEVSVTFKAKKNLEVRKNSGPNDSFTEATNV

[5] = NIH3T3 cell viability loss – ATP luminescence, mouse fibroblasts, counter-screen, dose response (AID 2010); format: functional, cell-based;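 note: cells exposed to compound for about 90 hours before reading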
[6] = Trypanosoma cruzi growth suppression in host cells – NIH3T3 host cells, beta-gal luminescence, confirmation (AID 2044); format: functional, cell-based;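 note: intracellular parasites grown in NIH/3T3 mouse fibroblasts as host cells; luminescent beta-galactosidase reporter signal from transgenic T. cruzi replicating inside host cells; inhibitors lower the luminescence signal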
[7] = target: T3, Replicative DNA helicase DnaB (Mycobacterium tuberculosis, UniProt P9WMR3); assay: DnaB intein splicing inhibitors, dose response, biochemical, cell-free fluorescence (AID 449749); format: functional
T3 sequence (P9WMR3 whole entry): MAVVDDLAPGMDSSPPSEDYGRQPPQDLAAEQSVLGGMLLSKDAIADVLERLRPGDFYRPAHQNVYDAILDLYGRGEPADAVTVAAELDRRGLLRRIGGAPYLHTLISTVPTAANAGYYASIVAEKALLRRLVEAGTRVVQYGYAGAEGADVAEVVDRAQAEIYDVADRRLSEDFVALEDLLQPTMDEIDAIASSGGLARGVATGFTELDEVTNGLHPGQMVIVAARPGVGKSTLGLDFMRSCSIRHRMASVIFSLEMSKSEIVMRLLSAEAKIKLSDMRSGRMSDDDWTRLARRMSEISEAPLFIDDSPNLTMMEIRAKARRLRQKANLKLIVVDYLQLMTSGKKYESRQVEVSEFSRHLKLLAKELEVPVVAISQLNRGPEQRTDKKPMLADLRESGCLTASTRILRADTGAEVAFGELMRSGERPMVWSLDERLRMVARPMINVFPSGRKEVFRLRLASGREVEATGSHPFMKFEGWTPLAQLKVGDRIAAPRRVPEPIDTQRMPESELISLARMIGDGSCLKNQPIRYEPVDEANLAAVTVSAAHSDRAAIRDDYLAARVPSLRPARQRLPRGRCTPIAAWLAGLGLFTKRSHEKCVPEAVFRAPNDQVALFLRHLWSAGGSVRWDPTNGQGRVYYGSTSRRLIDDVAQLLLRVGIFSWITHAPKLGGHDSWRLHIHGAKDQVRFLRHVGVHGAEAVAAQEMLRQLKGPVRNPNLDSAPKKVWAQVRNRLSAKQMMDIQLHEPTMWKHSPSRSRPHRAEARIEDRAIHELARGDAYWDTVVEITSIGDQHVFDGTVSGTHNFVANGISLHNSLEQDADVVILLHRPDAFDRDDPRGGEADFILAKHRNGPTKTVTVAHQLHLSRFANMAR

Protein RecA = target: T4, Protein RecA (Mycobacterium tuberculosis, UniProt P9WHJ3); assay: Fluorescence Cell-Free Homogeneous Dose Retest to Identify Inhibitors of RecA-Intein Splicing Activity. [Related pubchem assays (depositor defined):AID2097, AID2223, AID489010, AID492950]; format: functional
T4 sequence (P9WHJ3 whole entry): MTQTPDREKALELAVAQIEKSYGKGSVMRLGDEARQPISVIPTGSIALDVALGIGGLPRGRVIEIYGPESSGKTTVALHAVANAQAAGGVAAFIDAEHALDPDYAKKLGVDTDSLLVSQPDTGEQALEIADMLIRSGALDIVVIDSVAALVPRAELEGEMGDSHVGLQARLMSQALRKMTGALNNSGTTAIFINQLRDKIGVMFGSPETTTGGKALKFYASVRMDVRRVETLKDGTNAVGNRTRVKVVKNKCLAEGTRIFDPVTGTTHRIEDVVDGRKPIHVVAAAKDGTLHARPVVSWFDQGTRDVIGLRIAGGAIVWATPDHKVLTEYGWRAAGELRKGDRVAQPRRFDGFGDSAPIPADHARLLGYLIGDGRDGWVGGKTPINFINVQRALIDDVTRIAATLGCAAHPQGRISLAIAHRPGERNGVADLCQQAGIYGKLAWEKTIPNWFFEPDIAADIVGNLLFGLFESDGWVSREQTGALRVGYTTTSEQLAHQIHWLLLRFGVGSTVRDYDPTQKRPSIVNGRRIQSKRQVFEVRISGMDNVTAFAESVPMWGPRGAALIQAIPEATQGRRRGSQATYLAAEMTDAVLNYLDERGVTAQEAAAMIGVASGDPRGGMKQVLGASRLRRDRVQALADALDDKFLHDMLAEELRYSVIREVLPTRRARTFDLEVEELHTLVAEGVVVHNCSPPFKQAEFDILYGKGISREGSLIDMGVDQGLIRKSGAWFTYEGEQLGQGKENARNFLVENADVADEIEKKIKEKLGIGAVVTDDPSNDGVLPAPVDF

cells [8] = assay: cells; remark: listed apart in the source
[9] = target: T5, Dual specificity protein phosphatase 6 (Rattus norvegicus, UniProt Q64346)
T5 sequence (Q64346 whole entry): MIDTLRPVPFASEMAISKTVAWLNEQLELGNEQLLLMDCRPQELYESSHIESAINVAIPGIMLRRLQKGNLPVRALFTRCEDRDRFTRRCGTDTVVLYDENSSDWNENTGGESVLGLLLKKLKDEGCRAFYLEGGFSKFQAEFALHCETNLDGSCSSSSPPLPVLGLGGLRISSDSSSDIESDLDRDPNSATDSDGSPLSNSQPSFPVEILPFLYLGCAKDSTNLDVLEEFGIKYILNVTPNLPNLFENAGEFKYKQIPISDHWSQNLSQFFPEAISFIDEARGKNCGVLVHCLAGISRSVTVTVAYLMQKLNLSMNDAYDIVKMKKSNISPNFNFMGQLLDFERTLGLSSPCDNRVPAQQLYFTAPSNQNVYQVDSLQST

[10] = target: T5, Dual specificity protein phosphatase 6; assay: inhibition of rat DUSP6 enzyme activity – biochemical, in vitro, primary screen (AID 425)
[11] = target: Eukaryotic translation initiation factor 4E (Mus musculus, UniProt P63073); assay: blockers of eIF4G binding by eIF4E – biochemical, TR-FRET, dose response (AID 855); format: functional;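 note: potency for disrupting eIF4E binding to eIF4GI seen as loss of FRET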
[12] = target: Induced myeloid leukemia cell differentiation protein Mcl-1 (Homo sapiens, UniProt Q07820); assay: blockers of MCL1 binding to BIM peptide – biochemical, fluorescence polarization, BIM-BH3 peptide, 1536-well, dose response (AID 2217)
[13] = target: T6, Tyrosine-protein phosphatase non-receptor type 7 (Homo sapiens, UniProt P35236); format: functional
T6 sequence (P35236 whole entry): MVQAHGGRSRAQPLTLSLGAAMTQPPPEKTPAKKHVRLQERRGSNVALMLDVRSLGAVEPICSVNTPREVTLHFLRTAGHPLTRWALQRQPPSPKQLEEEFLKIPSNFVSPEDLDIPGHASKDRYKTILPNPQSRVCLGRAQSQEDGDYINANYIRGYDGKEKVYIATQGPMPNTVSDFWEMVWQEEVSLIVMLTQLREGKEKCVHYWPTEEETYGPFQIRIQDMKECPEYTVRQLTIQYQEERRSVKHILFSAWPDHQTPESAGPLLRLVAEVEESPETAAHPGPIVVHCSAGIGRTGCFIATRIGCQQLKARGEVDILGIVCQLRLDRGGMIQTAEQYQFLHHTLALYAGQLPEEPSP

Genome polyprotein = Genome polyprotein (Hepatitis C virus, UniProt Q2Q167); assay: disruption of hepatitis C core self-association – biochemical, TR-FRET, dose response (AID 2159); parameters: species or system Hepacivirus hominis;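 note: blocks dimerization of HCV core protein measured by TR-FRET between tagged core106 pairs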
Bcl-2-like protein 1 = Bcl-2-like protein 1 (Homo sapiens, UniProt Q07817); assay: blockers of BCLXL peptide binding – biochemical, fluorescence polarization, 1536-well, selectivity assay for MCL1 inhibitor project, dose response (AID 2218)
[14] = target: T5, Dual specificity protein phosphatase 6; format: functional
[15] = target: Glyceraldehyde-3-phosphate dehydrogenase (Homo sapiens, UniProt P04406)
Glyceraldehyde-3-phosphate dehydrogenase, sequence (P04406 whole entry): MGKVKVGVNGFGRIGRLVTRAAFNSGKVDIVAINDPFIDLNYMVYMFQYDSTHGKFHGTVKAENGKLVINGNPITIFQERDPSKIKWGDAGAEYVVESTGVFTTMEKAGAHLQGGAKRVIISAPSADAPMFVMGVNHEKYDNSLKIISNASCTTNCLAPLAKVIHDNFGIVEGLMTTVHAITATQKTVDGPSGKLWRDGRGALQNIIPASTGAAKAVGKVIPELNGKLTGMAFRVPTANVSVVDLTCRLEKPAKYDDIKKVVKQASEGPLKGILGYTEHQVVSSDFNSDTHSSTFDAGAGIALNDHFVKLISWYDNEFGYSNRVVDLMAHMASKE

Genome polyprotein, sequence (Q2Q167 whole entry): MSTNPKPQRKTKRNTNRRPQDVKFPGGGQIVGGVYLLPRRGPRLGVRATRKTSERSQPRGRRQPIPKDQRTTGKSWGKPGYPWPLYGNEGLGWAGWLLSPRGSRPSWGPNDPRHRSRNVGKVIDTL
Bcl-2-like protein 10, sequence (Q9HD36 whole entry): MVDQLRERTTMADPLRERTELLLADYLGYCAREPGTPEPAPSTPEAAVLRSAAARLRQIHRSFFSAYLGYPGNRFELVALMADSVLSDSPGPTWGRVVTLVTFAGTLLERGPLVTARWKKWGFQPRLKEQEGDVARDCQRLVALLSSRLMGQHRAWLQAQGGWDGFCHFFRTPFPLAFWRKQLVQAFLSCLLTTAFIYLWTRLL
Eukaryotic translation initiation factor 4E, sequence (P63073 whole entry): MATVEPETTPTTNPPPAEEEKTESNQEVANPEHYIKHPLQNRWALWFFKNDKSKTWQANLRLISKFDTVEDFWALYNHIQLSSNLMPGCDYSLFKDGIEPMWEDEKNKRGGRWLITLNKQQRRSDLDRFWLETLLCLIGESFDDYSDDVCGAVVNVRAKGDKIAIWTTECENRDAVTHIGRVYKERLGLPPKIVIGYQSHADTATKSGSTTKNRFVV
Induced myeloid leukemia cell differentiation protein Mcl-1, sequence (Q07820 whole entry): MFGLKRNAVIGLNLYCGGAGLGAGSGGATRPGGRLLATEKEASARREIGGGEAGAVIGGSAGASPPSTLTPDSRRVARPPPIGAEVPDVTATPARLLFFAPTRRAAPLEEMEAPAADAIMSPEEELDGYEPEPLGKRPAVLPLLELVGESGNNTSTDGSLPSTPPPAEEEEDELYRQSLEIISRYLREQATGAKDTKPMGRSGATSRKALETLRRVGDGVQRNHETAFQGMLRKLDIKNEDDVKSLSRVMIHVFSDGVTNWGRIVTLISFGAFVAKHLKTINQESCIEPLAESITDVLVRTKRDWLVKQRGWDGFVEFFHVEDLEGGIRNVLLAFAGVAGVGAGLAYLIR
Bcl-2-like protein 1, sequence (Q07817 whole entry): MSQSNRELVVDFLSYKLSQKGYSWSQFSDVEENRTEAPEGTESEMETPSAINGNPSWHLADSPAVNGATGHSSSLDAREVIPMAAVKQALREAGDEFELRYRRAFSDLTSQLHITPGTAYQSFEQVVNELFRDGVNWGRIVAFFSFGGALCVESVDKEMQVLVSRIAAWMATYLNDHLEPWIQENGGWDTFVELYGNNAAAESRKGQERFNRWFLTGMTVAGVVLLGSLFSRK

## Cc1cccc2nc(-c3cccc(NC(=O)Cc4ccccc4)c3)cn12
[1]
  CC50: 42.8 µM (active)
Cells [2]
  IC50: 29.7 µM (active)

## CCSc1nc(NN)c2c3c(sc2n1)CN(C)CC3
Bcl-2-like protein 10
  EC50: 7.43 µM (active)

## CCCCNC(=O)c1onc(CSc2ccc(Cl)cc2)c1C(=O)O
[3]
  IC50: 16.8 µM (not active)
[4]
  IC50: 9.93 µM (active)

## O=C(CNC(=O)c1ccccc1)N/N=C/c1ccc([N+](=O)[O-])o1
[5]
  EC50: > 60 µM (not active)
[6]
  EC50: < 0.1 µM (active)
[7]
  AC50: > 380 µM (inactive)
Protein RecA
  EC50: > 380 µM (inactive)
Cells [8]
  EC50: 0.022 µM (active)

## CCCCCC#CCC#CCC#CCC#CCCCC(=O)O
[9]
  IC50: 25.1 µM (active)
[10]
  IC50: 0.832 µM (active)
[11]
  IC50: 32.1 µM (inactive)
[12]
  IC50: 0.441 µM (active)
[13]
  IC50: 15.4 µM (active)
Genome polyprotein
  IC50: 46.3 µM (not active)
Bcl-2-like protein 1
  IC50: > 109 µM (not active)
[14]
  IC50: 30.4 µM (active)
[15]
  IC50: > 100 µM (not active)

From ChEMBL document CHEMBL1201862, “PubChem BioAssay data set” (2004)
